Reference: paper PMC5607274, “An iterative compound screening contest method for identifying target protein inhibitors using the tyrosine-protein kinase Yes” (Scientific Reports, 2017)

Target: T1, human recombinant Yes [a.a. 2–543 (end)] (Homo sapiens, UniProt P07947)
T1 construct: human recombinant Yes [a.a; 2–543 (end)]; purchased BPS Bioscience 40488
Assay: ADP-Glo kinase assay, inhibition rates of Yes phosphorylation activity (first and second screening)
Format: biochemical
Conditions: 10 μmol L−1 compound; for First screening IR (inhibition rate): mean of n = 4 wells
Method in brief: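 ADP-Glo luminescence measured inhibition of human recombinant Yes (a.a. 2–543) phosphorylation activity. In the first screen, each compound ran in 4 wells and inhibition rates were averaged. The second screen retested hits as compounds dissolved from fresh powder.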

T1 sequence (P07947 2-543): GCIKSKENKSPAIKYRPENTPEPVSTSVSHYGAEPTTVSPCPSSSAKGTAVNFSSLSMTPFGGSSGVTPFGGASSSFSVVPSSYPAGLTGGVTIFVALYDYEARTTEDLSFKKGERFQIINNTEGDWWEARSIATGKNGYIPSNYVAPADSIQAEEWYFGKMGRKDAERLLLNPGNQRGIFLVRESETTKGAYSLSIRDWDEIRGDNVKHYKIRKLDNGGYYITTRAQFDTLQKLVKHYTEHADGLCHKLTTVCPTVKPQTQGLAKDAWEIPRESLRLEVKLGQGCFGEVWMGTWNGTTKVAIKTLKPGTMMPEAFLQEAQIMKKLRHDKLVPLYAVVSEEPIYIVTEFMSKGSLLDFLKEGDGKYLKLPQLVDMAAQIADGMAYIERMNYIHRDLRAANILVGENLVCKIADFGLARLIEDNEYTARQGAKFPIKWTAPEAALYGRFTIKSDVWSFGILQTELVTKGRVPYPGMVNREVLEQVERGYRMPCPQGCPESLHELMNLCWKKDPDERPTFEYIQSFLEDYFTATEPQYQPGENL

Structure (SMILES) | First screening IR (inhibition rate) [%] | Second screening IR (inhibition rate) (second screening, dissolved from fresh powder, n = 4) [%]
O=C(NCc1ccc(-n2cccn2)nc1)c1cc(-c2ccco2)[nH]n1 [Compound Z317736476] | -2 | –
Cc1ccc(Nc2nccc(C(F)(F)F)n2)cc1S(=O)(=O)N(C)C [Compound Z318799754] | 6 | –
N#CCOc1ccc(Nc2nccc(C(F)(F)F)n2)cc1 [Compound Z318833320] | 7 | –
Nc1c(Cl)cc(Nc2nccc(C(F)(F)F)n2)cc1Cl [Compound Z318854232] | 7 | –
FC(F)(F)c1ccnc(Nc2ccc3nc(N4CCCC4)sc3c2)n1 [Compound Z318995726] | 22 | –
FC(F)(F)c1ccnc(Nc2ccc(N3CCOCC3)nc2)n1 [Compound Z318998372] | -7 | –
FC(F)(F)c1ccnc(Nc2ccc(N3CCCC3)nc2)n1 [Compound Z319012342] | -5 | –
CN(C)c1ccc(Nc2nccc(C(F)(F)F)n2)cn1 [Compound Z319012738] | 2 | –
O=C(c1ccc(Nc2nccc(C(F)(F)F)n2)cc1)N1CCCC1 [Compound Z319025642] | -36 | –
CC(C)c1ccc(C(=O)N2CCN(c3ccc(C#N)cn3)CC2)cc1 [Compound Z319076580] | -2 | –
Cn1ncc2c(N3CCOC(c4ccc(F)cc4)C3)ncnc21 (stereo not drawn) [Compound Z319092016] | -2 | –
O=C(/C=c1/[nH]c(=O)/c(=C\c2ccc(Cl)cc2)s1)c1ccncc1 [Compound Z319403812] | 8 | –
NC(=O)c1ccc(CN(C2CC2)S(=O)(=O)c2cccc(Cl)c2)cc1 [Compound Z319895028] | -5 | –
NC(=O)C(NCCCN1CCc2ccccc21)c1ccccc1 (stereo not drawn) [Compound Z320065982] | -17 | –
O=C(Nc1ccc(F)cc1)c1nnc(CSc2ncc(-c3ccccc3)[nH]2)s1 [Compound Z325218452] | 0 | –
CN(C)c1nc(N)nc(CSCCC(=O)Nc2ccccc2)n1 [Compound Z327260972] | -8 | –
CN(Cc1ccc(C(=O)NCC(F)(F)F)cc1)c1cc(Cl)nc(N)n1 [Compound Z328693166] | 10 | –
CC(c1cc2ccccc2o1)N(C)c1ncnc2c1cnn2C (stereo not drawn) [Compound Z328694162] | -5 | –
Cn1ncc2c(N(Cc3ccccc3F)C3CC3)ncnc21 [Compound Z328694806] | -21 | –
CC(c1ccc(F)c(F)c1)N(C)c1ncnc2c1cnn2C (stereo not drawn) [Compound Z328694928] | -1 | –
COC(=O)c1cc(-c2ccc(OC)cc2)nc2c1c(C)nn2CCC#N [Compound Z328815354] | 24 | –
CCc1c(C(=O)Nc2n[nH]c(-c3ccc(C)cc3)n2)cnn1-c1ccccc1 [Compound Z332932578] | 1 | –

Structure (SMILES) | First screening IR (inhibition rate) [%] | Second screening IR (inhibition rate) (second screening, dissolved from fresh powder, n = 4) [%]
COc1ccc(-c2nc(NC(=O)c3ccc(NC(=O)c4ccccc4)cc3)n[nH]2)cc1 [Compound Z332936670] | 14 | –
O=C(NCc1cn2ccsc2n1)C1CC1c1ccccc1C(F)(F)F (stereo not drawn) [Compound Z333170264] | -2 | –
COc1ccc(/C(O)=C2\C(=O)C(=O)N(CCCn3ccnc3)C2c2cccnc2)cc1OC (stereo not drawn) [Compound Z335452550] | -9 | –
CC(NC(c1ccccc1)c1ccccn1)c1ccncc1 (stereo not drawn) [Compound Z335491150] | 3 | –
O=C(CSc1ccc(S(=O)(=O)N2CCCC2)cn1)c1ccc2c(c1)OCO2 [Compound Z335869204] | 12 | –
O=c1cc(-c2ccccc2)c2cc(Cl)c(OCCO)cc2o1 [Compound Z335913836] | 15 | –
CC(C)(C)c1nc(SCC(=O)c2ccc3c(c2)CCC3)n[nH]1 [Compound Z335958518] | -7 | –
Cn1nccc1/C=C1\C(=O)Nc2ccccc21 [Compound Z336032014] | 2 | –
CC(C)n1ncc2cc(/C=C3/CN(C)Cc4c3nc3ccccc3c4C(=O)O)c(Cl)nc21 [Compound Z336032562] | 54 | -2
CCCn1c(=O)[nH]c(=O)c2c(C(=O)Nc3ccccc3N3CCOCC3)cc(C3CC3)nc21 [Compound Z337770612] | -5 | –
CC(C)Cn1c(=O)[nH]c(=O)c2c(C(=O)NCc3ccc(CN4CCOCC4)cc3)cc(C3CC3)nc21 [Compound Z338592020] | 6 | –
O=c1c([N+](=O)[O-])c(NCCCn2ccnc2)c2ccccc2n1-c1ccccc1 [Compound Z339024634] | -22 | –
O=C(Nn1cnc2ccccc21)c1cnn(-c2ccccc2F)c1-n1cccc1 [Compound Z339292340] | 11 | –
O=C(Nc1ccc2ccccc2n1)c1ccc(OCc2cccnc2)cc1 [Compound Z339583070] | -12 | –
N#Cc1ccccc1CSCCNC(=O)N1CCN(c2ncc(C(F)(F)F)cc2Cl)CC1 [Compound Z352490104] | -2 | –
CN(CCCC(=O)O)S(=O)(=O)c1cc(S(C)(=O)=O)ccc1Cl [Compound Z353969056] | 44 | –
CS(=O)(=O)c1ccc(Cl)c(S(N)(=O)=O)c1 [Compound Z353972988] | 2 | –
CCC1CCCCN1S(=O)(=O)c1cc(S(C)(=O)=O)ccc1Cl (stereo not drawn) [Compound Z355127288] | 7 | –
CC1CC(C)CN(S(=O)(=O)c2cc(S(C)(=O)=O)ccc2Cl)C1 (stereo not drawn) [Compound Z355129038] | 12 | –
Cc1ccc(-c2cc(C(=O)OCc3nc(C(C)(C)C)no3)n[nH]2)s1 [Compound Z355654248] | 12 | –
Cc1nc2c(cc1C(=O)NCCNc1ccccc1[N+](=O)[O-])c(C)nn2C [Compound Z355820588] | -9 | –
Cc1cc(NC(=O)C(C)SCC(=O)Nc2ccc(SC3CCCC3)cc2)no1 (stereo not drawn) [Compound Z357095098] | -13 | –

Structure (SMILES) | First screening IR (inhibition rate) [%] | Second screening IR (inhibition rate) (second screening, dissolved from fresh powder, n = 4) [%]
CN(C1CCCCC1)S(=O)(=O)N1CCN(c2cn[nH]c(=O)c2Cl)CC1 [Compound Z357945110] | -10 | –
C=CCn1c(-c2ccc(Cl)cc2)nn(CN2CCN(C(=O)c3ccccc3F)CC2)c1=S [Compound Z358275910] | 5 | –
CN1CCCN(c2nc(C(F)(F)F)nc3c2cnn3Cc2ccccc2)CC1 [Compound Z359311942] | -23 | –
CCN(CC)C(=O)CN1CCCN(c2ncnc3c2cnn3C)CC1 [Compound Z359324360] | -4 | –
O=C(Nc1cccc(Cn2ccnc2)c1)c1cc2c(s1)-c1ccccc1OC2 [Compound Z362662212] | 6 | –
O=C(COc1ccc(Br)cc1)Nc1cccc(Cn2ccnc2)c1 [Compound Z362662788] | 8 | –
Cc1ccc(-n2ncc(C(=O)Nc3ccccc3F)c2C2CC2)cc1Cl [Compound Z363094390] | -5 | –
O=C(NCc1ccc(-n2ccnc2)nc1)c1ccc(-c2ccccc2)cc1 [Compound Z363639532] | 3 | –
O=C(/C=C/c1ccc(Br)o1)Nc1ccc(S(=O)(=O)C2CCCC2)cc1 [Compound Z364474850] | 0 | –
Cc1cc(C(=O)Nc2ccc3c(c2)CCC3)ccc1-n1cnnn1 [Compound Z365246124] | 9 | –
O=C(c1ccc(=O)[nH]c1)N1CCN(C(=O)c2cc3ccccc3o2)CC1 [Compound Z368093014] | 48 | –
NC(=O)c1cc(NC(=O)c2cc(-c3ccccc3Cl)n[nH]2)ccc1F [Compound Z368298320] | -18 | –
CCC(CC)N(C)S(=O)(=O)c1ccc(S(N)(=O)=O)cc1 [Compound Z369246436] | -4 | –
O=C(NCc1ccccc1)Nc1ccc2oc(C3CC3)nc2c1 [Compound Z369933958] | 11 | –
CC(=O)N1CCN(c2nc(C(F)(F)F)nc3ccsc23)CC1 [Compound Z370715150] | 6 | –
O=C1CN(c2nc(C(F)(F)F)nc3ccsc23)CCN1 [Compound Z370715174] | 26 | –
O=C(Nc1cccc2ncccc12)c1ccc(=O)n(-c2ccc(F)cc2)n1 [Compound Z370787214] | 43 | –
O=C(c1ccoc1)N1CCN(c2ncnc3cc(-c4ccc(F)cc4)sc23)CC1 [Compound Z373317194] | 48 | –
N#Cc1ccc(NC(=O)c2ccn(-c3ccc(F)cc3)n2)cc1 [Compound Z381174904] | 44 | –
Cc1nnc(NC(=O)C2CC(c3cccc(F)c3)=NO2)s1 (stereo not drawn) [Compound Z381180216] | -5 | –
Cc1ccc(-c2nc(N)sc2C)s1 [Compound Z381381388] | -1 | –
